According to PubChem BioAssay AID2060616 (Molecular Pharmacology Branch, DTP, NCI, 2025):
Where “and” joins values, the source holds several entries; their conditions need not be identical. Equal entries are not always repeated.

Tested on: 377384-186-R-J1-PDC complex spheroid viability
Test: Anticancer human tumor 377384-186-R-J1-PDC patient-derived pancreatic carcinoma cell line growth inhibition [CLK]
Conditions: for viability, T/C: stronger effect = lower value; active = viability on the fitted dose curve at most 10% of control; inactive = the rest
In short: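 Patient-derived tumor cells grown as complex spheroids with HUVEC endothelial cells and mesenchymal stem cells, treated with drug combinations. Concentrations descend in half-log steps from near clinical Cmax, or from 10 microM if Cmax unknown.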

[1] = curve of first compound, second compound 0.0316 µM
[2] = curve of first compound, second compound 0.1 µM
[3] = curve of first compound, second compound 0.316 µM
[4] = curve of first compound, second compound 1 µM
[5] = curve of first compound, second compound 3.16 µM
[6] = curve of first compound, second compound 10 µM
[7] = second compound 0.0316 µM, first compound 0.0316 µM
[8] = second compound 0.0316 µM, first compound 0.1 µM
[9] = second compound 0.0316 µM, first compound 0.316 µM
[10] = second compound 0.0316 µM, first compound 1 µM
[11] = second compound 0.1 µM, first compound 0.0316 µM
[12] = second compound 0.1 µM, first compound 0.1 µM
[13] = second compound 0.1 µM, first compound 0.316 µM
[14] = second compound 0.1 µM, first compound 1 µM
[15] = second compound 0.316 µM, first compound 0.0316 µM
[16] = second compound 0.316 µM, first compound 0.1 µM
[17] = second compound 0.316 µM, first compound 0.316 µM
[18] = second compound 0.316 µM, first compound 1 µM
[19] = second compound 1 µM, first compound 0.0316 µM
[20] = second compound 1 µM, first compound 0.1 µM
[21] = second compound 1 µM, first compound 0.316 µM
[22] = second compound 1 µM, first compound 1 µM
[23] = second compound 3.16 µM, first compound 0.0316 µM
[24] = second compound 3.16 µM, first compound 0.1 µM
[25] = second compound 3.16 µM, first compound 0.316 µM
[26] = second compound 3.16 µM, first compound 1 µM
[27] = second compound 10 µM, first compound 0.0316 µM
[28] = second compound 10 µM, first compound 0.1 µM
[29] = second compound 10 µM, first compound 0.316 µM
[30] = second compound 10 µM, first compound 1 µM
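Also: spheroids exposed to agents for 7 days before reading.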
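For viability, T/C in this document: luminescence signal used as a stand-in for viable cells.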

C=CC(=O)Nc1cc(Nc2nccc(-c3cn(C)c4ccccc34)n2)c(OC)cc1N(C)CCN(C)C + CN1CCN(c2cc(C(=O)Nc3cc4cc(-c5cnn(C)c5)ccc4cn3)ccn2)CC1
< 0.949 nM: IC50 [3] | IC50 [4] | IC50 [5] | IC50 [6]
active: viability, T/C (second compound 1 µM, first compound 0.000949 µM) 1.11% | viability, T/C (second compound 1 µM, first compound 0.003 µM) 1.28% | viability, T/C (second compound 1 µM, first compound 0.00949 µM) 2.15% | viability, T/C (second compound 1 µM, first compound 0.03 µM) 1.55% | viability, T/C (second compound 1 µM, first compound 0.0949 µM) 1.26% | viability, T/C (second compound 1 µM, first compound 0.3 µM) 1.63% | viability, T/C (second compound 3.16 µM, first compound 0.000949 µM) 0.48% | viability, T/C (second compound 3.16 µM, first compound 0.003 µM) 0.71% | viability, T/C (second compound 3.16 µM, first compound 0.00949 µM) 1.03% | viability, T/C (second compound 3.16 µM, first compound 0.03 µM) 0.37% | viability, T/C (second compound 3.16 µM, first compound 0.0949 µM) 0.75% | viability, T/C (second compound 3.16 µM, first compound 0.3 µM) 2.51% | viability, T/C (second compound 10 µM, first compound 0.000949 µM) 0.83% | viability, T/C (second compound 10 µM, first compound 0.003 µM) 1.36% | viability, T/C (second compound 10 µM, first compound 0.00949 µM) 1.97% | viability, T/C (second compound 10 µM, first compound 0.03 µM) 0.66% | viability, T/C (second compound 10 µM, first compound 0.0949 µM) 2.03% | viability, T/C (second compound 10 µM, first compound 0.3 µM) 0.56%
> 300 nM: IC50 [1] | IC50 [2]
inactive: viability, T/C (second compound 0.0316 µM, first compound 0.000949 µM) 91.6% | viability, T/C (second compound 0.0316 µM, first compound 0.003 µM) 100% | viability, T/C (second compound 0.0316 µM, first compound 0.00949 µM) 90.7% | viability, T/C (second compound 0.0316 µM, first compound 0.03 µM) 93.6% | viability, T/C (second compound 0.0316 µM, first compound 0.0949 µM) 79.5% | viability, T/C (second compound 0.0316 µM, first compound 0.3 µM) 76.3% | viability, T/C (second compound 0.1 µM, first compound 0.000949 µM) 109% | viability, T/C (second compound 0.1 µM, first compound 0.003 µM) 99.4% | viability, T/C (second compound 0.1 µM, first compound 0.00949 µM) 83.3% | viability, T/C (second compound 0.1 µM, first compound 0.03 µM) 91.2% | viability, T/C (second compound 0.1 µM, first compound 0.0949 µM) 79.2% | viability, T/C (second compound 0.1 µM, first compound 0.3 µM) 63% | viability, T/C (second compound 0.316 µM, first compound 0.000949 µM) 26.1% | viability, T/C (second compound 0.316 µM, first compound 0.003 µM) 26.6% | viability, T/C (second compound 0.316 µM, first compound 0.00949 µM) 25.1% | viability, T/C (second compound 0.316 µM, first compound 0.03 µM) 26.5% | viability, T/C (second compound 0.316 µM, first compound 0.0949 µM) 23.7% | viability, T/C (second compound 0.316 µM, first compound 0.3 µM) 22.2%

COc1c(OCCCN2CCOCC2)ccc2c3n(c(=NC(=O)c4cnc(N)nc4)nc12)CCN3 + CNC(=O)c1ccc(Nc2nc(OC3CCCC3)c3c(-c4ccc5nc(C)oc5c4)c[nH]c3n2)c(OC)c1
inactive: viability, T/C (second compound 0.0316 µM, first compound 0.00316 µM) 74.8% | viability, T/C (second compound 0.0316 µM, first compound 0.01 µM) 66.1% | viability, T/C [7] 47.6% | viability, T/C [8] 33.9% | viability, T/C [9] 23.1% | viability, T/C [10] 14% | viability, T/C (second compound 0.1 µM, first compound 0.00316 µM) 63.3% | viability, T/C (second compound 0.1 µM, first compound 0.01 µM) 54.5% | viability, T/C [11] 35.7% | viability, T/C [12] 27.5% | viability, T/C [13] 17.4% | viability, T/C [14] 12% | viability, T/C (second compound 0.316 µM, first compound 0.00316 µM) 19.1% | viability, T/C (second compound 0.316 µM, first compound 0.01 µM) 19.1% | viability, T/C [15] 14.5% | viability, T/C [16] 14% | viability, T/C [17] 11.6% | viability, T/C [18] 10.4% | viability, T/C (second compound 1 µM, first compound 0.00316 µM) 19% | viability, T/C (second compound 1 µM, first compound 0.01 µM) 16.6% | viability, T/C [19] 16.8% | viability, T/C [20] 12.2% | viability, T/C [21] 10.7% | viability, T/C (second compound 3.16 µM, first compound 0.00316 µM) 19.9% | viability, T/C (second compound 3.16 µM, first compound 0.01 µM) 17.6% | viability, T/C [23] 13.6% | viability, T/C [24] 12.9% | viability, T/C [25] 9.91% | viability, T/C (second compound 10 µM, first compound 0.00316 µM) 21.4% | viability, T/C (second compound 10 µM, first compound 0.01 µM) 17.7% | viability, T/C [27] 14.4% | viability, T/C [28] 11.6% | viability, T/C [29] 10.8%
29.9 nM: IC50 [1]
active: viability, T/C [22] 9.69% | viability, T/C [26] 9.78% | viability, T/C [30] 9.14%
12.2 nM: IC50 [2]
< 3.16 nM: IC50 [3] | IC50 [4] | IC50 [5] | IC50 [6]

CC(=O)O[C@H]1C(=O)[C@@]2(C)[C@H]([C@H](OC(=O)c3ccccc3)[C@]3(O)C[C@H](OC(=O)[C@H](O)[C@@H](NC(=O)c4ccccc4)c4ccccc4)C(C)=C1C3(C)C)[C@]1(OC(C)=O)CO[C@@H]1C[C@@H]2O
7.92% and 6.8%: viability, T/C (compound 0.0316 µM)
8.91% and 8.31%: viability, T/C (compound 1 µM)
10.3% and 8.38%: viability, T/C (compound 3.16 µM)
9.5% and 7.41%: viability, T/C (compound 0.1 µM)
< 31.6 nM: IC50 (curve of compound)
10.5% and 9.32%: viability, T/C (compound 0.316 µM)
14.3% and 11.1%: viability, T/C (compound 10 µM)

CCc1c2c(nc3ccc(O)cc13)-c1cc3c(c(=O)n1C2)COC(=O)[C@]3(O)CC
< 3.16 nM: IC50 (curve of compound)
active: viability, T/C (compound 0.0316 µM) 6.41% and 5.33% | viability, T/C (compound 0.1 µM) 3.96% and 2.67% | viability, T/C (compound 0.316 µM) 1.37% and 1.52% | viability, T/C (compound 1 µM) 0.82% and 0.63%
inactive: viability, T/C (compound 0.00316 µM) 30% and 30.1% | viability, T/C (compound 0.01 µM) 17.2% and 14.6%

CC1(C)CCC(CN2CCN(c3ccc(C(=O)NS(=O)(=O)c4ccc(NCC5CCOCC5)c([N+](=O)[O-])c4)c(Oc4cnc5[nH]ccc5c4)c3)CC2)=C(c2ccc(Cl)cc2)C1 + CN1CCN(c2cc(C(=O)Nc3cc4cc(-c5cnn(C)c5)ccc4cn3)ccn2)CC1
inactive: viability, T/C [7] 96% | viability, T/C [8] 97.6% | viability, T/C [9] 102% | viability, T/C [10] 115% | viability, T/C (second compound 0.0316 µM, first compound 3.16 µM) 89.7% | viability, T/C [11] 95.7% | viability, T/C [12] 101% | viability, T/C [13] 89.8% | viability, T/C [14] 92.7% | viability, T/C (second compound 0.1 µM, first compound 3.16 µM) 83.8% | viability, T/C [15] 24.6% | viability, T/C [16] 27.9% | viability, T/C [17] 27.9% | viability, T/C [18] 21.6% | viability, T/C (second compound 0.316 µM, first compound 3.16 µM) 20.4% | viability, T/C (second compound 0.316 µM, first compound 10 µM) 3.98%
< 31.6 nM: IC50 [3] | IC50 [4] | IC50 [5] | IC50 [6]
5250 nM: IC50 [2]
5530 nM: IC50 [1]
active: viability, T/C (second compound 0.0316 µM, first compound 10 µM) 8.02% | viability, T/C (second compound 0.1 µM, first compound 10 µM) 7.17% | viability, T/C [19] 1.15% | viability, T/C [20] 1.09% | viability, T/C [21] 1.14% | viability, T/C [22] 1.04% | viability, T/C (second compound 1 µM, first compound 3.16 µM) 1.22% | viability, T/C (second compound 1 µM, first compound 10 µM) 1.79% | viability, T/C [23] 0.38% | viability, T/C [24] 0.8% | viability, T/C [25] 0.43% | viability, T/C [26] 0.54% | viability, T/C (second compound 3.16 µM, first compound 3.16 µM) 1.02% | viability, T/C (second compound 3.16 µM, first compound 10 µM) 1.42% | viability, T/C [27] 0.41% | viability, T/C [28] 0.46% | viability, T/C [29] 0.55% | viability, T/C [30] 0.59% | viability, T/C (second compound 10 µM, first compound 3.16 µM) 0.61% | viability, T/C (second compound 10 µM, first compound 10 µM) 0.95%
